# Measurements as given in patent US8895695B2, “Template-fixed beta-hairpin peptidomimetics with CXCR4 antagonizing activity” (priority 2003, dated 2014).
# Bridge positions count the residues as written; N and C are the ends. Square brackets hold non-standard residues; d marks the D form. Peptide text beside a SMILES is read from it. 2Nal = N[C@@H](Cc1ccc2ccccc2c1)C(=O)O; 4Pal = N[C@@H](Cc1ccncc1)C(=O)O; Cit = NC(=O)NCCC[C@H](N)C(=O)O
# What was measured:
# [1] = tested on: human red blood cells (hRBC); assay: Hemolysis; assay type: cell-based
# How it was run: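 Washed fresh human erythrocytes (20% v/v, about 0.9×10^9 cells/ml final) incubated with peptide at 100 μM for 1 h at 37° C. Supernatant diluted 20-fold and OD540 read. Percent hemolysis relative to 0.1% Triton X-100 in H2O (100%), with PBS alone as 0%.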
# CXCR4 = CXCR4 (Homo sapiens, UniProt P61073); assay: Ca2+-assay method 2 (Flexstation, SDF-1 induced calcium mobilization); assay type: cell-based; design: expressed in transfected cells; host or cells: mouse pre-B cell line 300-19; details: method 2 (Ex. 54-160), mouse pre-B cell line 300-19 with human CXCR4, 10 nM SDF-1; read-out: IC50 (nM) Ca^2+ assay
# in vitro = details: human
# 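Wherever GI50 is given: MTT reduction read as absorbance at 595 nm, blank-corrected and expressed as percent growth relative to the time-zero cell reading, triplicate wells per concentration.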
# CXCR4, sequence (P61073 whole entry): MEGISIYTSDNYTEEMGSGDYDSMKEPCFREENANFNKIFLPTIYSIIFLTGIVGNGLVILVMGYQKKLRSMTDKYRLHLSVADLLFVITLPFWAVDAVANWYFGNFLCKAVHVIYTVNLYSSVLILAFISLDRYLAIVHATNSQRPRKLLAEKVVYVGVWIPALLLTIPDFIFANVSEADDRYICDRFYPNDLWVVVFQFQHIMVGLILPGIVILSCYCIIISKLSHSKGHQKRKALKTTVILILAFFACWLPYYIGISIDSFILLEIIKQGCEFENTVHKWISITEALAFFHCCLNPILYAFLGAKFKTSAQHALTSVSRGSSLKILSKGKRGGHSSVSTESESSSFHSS
smiles,measurement,setting,value
N=C(N)NCCC[C@@H]1NC(=O)[C@@H]2CSSC[C@H](NC(=O)[C@H](Cc3ccc4ccccc4c3)NC(=O)[C@H](CCCNC(=N)N)NC(=O)[C@H](CCCNC(=N)N)NC(=O)[C@H]3CCCN3C(=O)CNC1=O)C(=O)N[C@@H](Cc1ccc(O)cc1)C(=O)N[C@@H](CCC(N)=O)C(=O)N[C@@H](CCCCN)C(=O)N1CCC[C@@H]1C(=O)N1CCC[C@H]1C(=O)N[C@@H](Cc1ccc(O)cc1)C(=O)N[C@@H](CCCNC(=N)N)C(=O)N[C@@H](CC(N)=O)C(=O)N2 [Ex. 92] (cyclo(YRNCRG[dP]RR[2Nal]CYQK[dP]P); disulfide 4-11),Hemolysis at 100 μM,[1],0.5%
same,IC50,CXCR4,1.1 nM
same,GI50 at 48 h,in vitro,53 µM
N=C(N)NCCC[C@@H]1NC(=O)[C@@H]2CSSC[C@H](NC(=O)[C@H](Cc3c[nH]c4ccccc34)NC(=O)[C@H](CCCNC(=N)N)NC(=O)[C@H](Cc3c[nH]cn3)NC(=O)[C@H]3CCCN3C(=O)CNC1=O)C(=O)N[C@@H](Cc1ccc(O)cc1)C(=O)N[C@@H](CCCNC(N)=O)C(=O)N[C@@H](CCCCN)C(=O)N1CCC[C@@H]1C(=O)N1CCC[C@H]1C(=O)N[C@@H](Cc1ccc(O)cc1)C(=O)N[C@@H](CCCNC(=N)N)C(=O)N[C@@H](CCCNC(N)=O)C(=O)N2 [Ex. 137] (cyclo(YR[Cit]CRG[dP]HRWCY[Cit]K[dP]P); disulfide 4-11),Hemolysis at 100 μM,[1],0.5%
same,IC50,CXCR4,1.28 nM
same,GI50 at 48 h,in vitro,79 µM
N=C(N)NCCC[C@@H]1NC(=O)[C@@H]2CSSC[C@H](NC(=O)[C@H](Cc3ccc4ccccc4c3)NC(=O)[C@H](CCCNC(=N)N)NC(=O)[C@H](CCCNC(=N)N)NC(=O)[C@H]3CCCN3C(=O)CNC1=O)C(=O)N[C@@H](Cc1ccc(O)cc1)C(=O)N[C@@H](CO)C(=O)N[C@@H](CCCCN)C(=O)N1CCC[C@@H]1C(=O)N1CCC[C@H]1C(=O)N[C@@H](Cc1ccc(O)cc1)C(=O)N[C@@H](CCCNC(=N)N)C(=O)N[C@@H](CCCNC(N)=O)C(=O)N2 [Ex. 81] (cyclo(YR[Cit]CRG[dP]RR[2Nal]CYSK[dP]P); disulfide 4-11),Hemolysis at 100 μM,[1],0%
same,IC50,CXCR4,4.9 nM
same,GI50 at 48 h,in vitro,45 µM
N=C(N)NCCC[C@@H]1NC(=O)[C@@H]2CSSC[C@H](NC(=O)[C@H](Cc3ccc4ccccc4c3)NC(=O)[C@H](CCCNC(=N)N)NC(=O)[C@H](CCCNC(=N)N)NC(=O)[C@H]3CCCN3C(=O)CNC1=O)C(=O)N[C@@H](Cc1ccc(O)cc1)C(=O)N[C@@H](CCC(N)=O)C(=O)N[C@@H](CCCCN)C(=O)N1CCC[C@@H]1C(=O)N1CCC[C@H]1C(=O)N[C@@H](Cc1c[nH]cn1)C(=O)N[C@@H](CCCNC(=N)N)C(=O)N[C@@H](CCCNC(N)=O)C(=O)N2 [Ex. 64] (cyclo(HR[Cit]CRG[dP]RR[2Nal]CYQK[dP]P); disulfide 4-11),Hemolysis at 100 μM,[1],0.3%
same,IC50,CXCR4,3.3 nM
same,GI50 at 48 h,in vitro,66 µM
C[C@@H](O)[C@@H]1NC(=O)[C@H](Cc2ccncc2)NC(=O)[C@H](Cc2ccc(O)cc2)NC(=O)[C@@H]2CCCN2C(=O)[C@H]2CCCN2C(=O)[C@H](CCCCN)NC(=O)[C@H](CCC(N)=O)NC(=O)[C@H](Cc2ccc(O)cc2)NC(=O)[C@@H]2CSSC[C@H](NC1=O)C(=O)N[C@@H](CCCNC(=N)N)C(=O)NCC(=O)N1CCC[C@@H]1C(=O)N[C@@H](CCCNC(=N)N)C(=O)N[C@@H](CCCNC(=N)N)C(=O)N[C@@H](Cc1c[nH]c3ccccc13)C(=O)N2 [Ex. 119] (cyclo(Y[4Pal]TCRG[dP]RRWCYQK[dP]P); disulfide 4-11),Hemolysis at 100 μM,[1],0%
same,IC50,CXCR4,9.4 nM
same,GI50 at 48 h,in vitro,63 µM
CSCC[C@@H]1NC(=O)[C@H](CCCNC(=N)N)NC(=O)[C@H](Cc2ccc(O)cc2)NC(=O)[C@@H]2CCCN2C(=O)[C@H]2CCCN2C(=O)[C@H](CCCCN)NC(=O)[C@H](CCC(N)=O)NC(=O)[C@H](Cc2ccc(O)cc2)NC(=O)[C@@H]2CSSC[C@H](NC1=O)C(=O)N[C@@H](CCCNC(=N)N)C(=O)NCC(=O)N1CCC[C@@H]1C(=O)N[C@@H](CCCNC(=N)N)C(=O)N[C@@H](CCCNC(=N)N)C(=O)N[C@@H](Cc1ccc3ccccc3c1)C(=O)N2 [Ex. 100] (cyclo(YRMCRG[dP]RR[2Nal]CYQK[dP]P); disulfide 4-11),Hemolysis at 100 μM,[1],0.8%
same,IC50,CXCR4,7 nM
same,GI50 at 48 h,in vitro,43 µM
N=C(N)NCCC[C@@H]1NC(=O)[C@@H]2CSSC[C@H](NC(=O)[C@H](Cc3ccc4ccccc4c3)NC(=O)[C@H](CCCNC(=N)N)NC(=O)[C@H](CCCNC(=N)N)NC(=O)[C@H]3CCCN3C(=O)CNC1=O)C(=O)N[C@@H](Cc1ccc(O)cc1)C(=O)N[C@@H](CCC(N)=O)C(=O)N[C@@H](CCCCN)C(=O)N1CCC[C@@H]1C(=O)N1CCC[C@H]1C(=O)N[C@@H](Cc1ccc(O)cc1)C(=O)N[C@@H](CCCNC(=N)N)C(=O)N1CCC[C@H]1C(=O)N2 [Ex. 74] (cyclo(YRPCRG[dP]RR[2Nal]CYQK[dP]P); disulfide 4-11),Hemolysis at 100 μM,[1],0.4%
same,IC50,CXCR4,19.5 nM
same,GI50 at 48 h,in vitro,40 µM
N=C(N)NCCC[C@@H]1NC(=O)[C@@H]2CSSC[C@H](NC(=O)[C@H](Cc3ccc4ccccc4c3)NC(=O)[C@H](CCCNC(=N)N)NC(=O)[C@H](CCCNC(=N)N)NC(=O)[C@H]3CCCN3C(=O)CNC1=O)C(=O)N[C@@H](Cc1ccc(O)cc1)C(=O)N[C@@H](CCC(N)=O)C(=O)N[C@@H](CCCCN)C(=O)N1CCC[C@@H]1C(=O)N1CCC[C@H]1C(=O)N[C@@H](CCCNC(=N)N)C(=O)N[C@@H](CCCNC(=N)N)C(=O)N[C@@H](CCCNC(N)=O)C(=O)N2 [compound 63] (cyclo(RR[Cit]CRG[dP]RR[2Nal]CYQK[dP]P); disulfide 4-11),Hemolysis at 100 μM,[1],0.2%
same,IC50,CXCR4,2 nM
same,GI50 at 48 h,in vitro,58 µM
N=C(N)NCCC[C@@H]1NC(=O)[C@@H]2CSSC[C@H](NC(=O)[C@H](Cc3ccc4ccccc4c3)NC(=O)[C@H](CCCNC(=N)N)NC(=O)[C@H](CCCNC(=N)N)NC(=O)[C@H]3CCCN3C(=O)CNC1=O)C(=O)N[C@@H](Cc1ccc(O)cc1)C(=O)N[C@@H](CCCNC(N)=O)C(=O)N[C@@H](CCC(=O)O)C(=O)N1CCC[C@@H]1C(=O)N1CCC[C@H]1C(=O)N[C@@H](Cc1ccc(O)cc1)C(=O)N[C@@H](CCCNC(=N)N)C(=O)N[C@@H](CCCNC(N)=O)C(=O)N2 [Ex. 103] (cyclo(YR[Cit]CRG[dP]RR[2Nal]CY[Cit]E[dP]P); disulfide 4-11),Hemolysis at 100 μM,[1],0.2%
same,IC50,CXCR4,18.3 nM
same,GI50 at 48 h,in vitro,42 µM
N=C(N)NCCC[C@@H]1NC(=O)[C@@H]2CSSC[C@H](NC(=O)[C@H](Cc3ccc4ccccc4c3)NC(=O)[C@H](CCCNC(=N)N)NC(=O)[C@H](CCCNC(=N)N)NC(=O)[C@H]3CCCN3C(=O)CNC1=O)C(=O)N[C@@H](Cc1ccc(O)cc1)C(=O)N[C@@H](CCCCN)C(=O)N[C@@H](CCCCN)C(=O)N1CCC[C@@H]1C(=O)N1CCC[C@H]1C(=O)N[C@@H](Cc1ccc(O)cc1)C(=O)N[C@@H](CCCNC(=N)N)C(=O)N[C@@H](CCCNC(N)=O)C(=O)N2 [Ex. 79] (cyclo(YR[Cit]CRG[dP]RR[2Nal]CYKK[dP]P); disulfide 4-11),Hemolysis at 100 μM,[1],0%
same,IC50,CXCR4,2.4 nM
same,GI50 at 48 h,in vitro,94 µM
CC(C)C[C@@H]1NC(=O)[C@H](Cc2ccc(O)cc2)NC(=O)[C@@H]2CSSC[C@H](NC(=O)[C@H](CCCNC(N)=O)NC(=O)[C@H](CCCNC(=N)N)NC(=O)[C@H](Cc3ccc(O)cc3)NC(=O)[C@@H]3CCCN3C(=O)[C@H]3CCCN3C(=O)[C@H](CCCCN)NC1=O)C(=O)N[C@@H](CCCNC(=N)N)C(=O)NCC(=O)N1CCC[C@@H]1C(=O)N[C@@H](CCCNC(=N)N)C(=O)N[C@@H](CCCNC(=N)N)C(=O)N[C@@H](Cc1ccc3ccccc3c1)C(=O)N2 [Ex. 82] (cyclo(YR[Cit]CRG[dP]RR[2Nal]CYLK[dP]P); disulfide 4-11),Hemolysis at 100 μM,[1],0%
same,IC50,CXCR4,4.8 nM
same,GI50 at 48 h,in vitro,40 µM
C[C@@H]1NC(=O)[C@H](CCCNC(=N)N)NC(=O)[C@H](Cc2ccc(O)cc2)NC(=O)[C@@H]2CCCN2C(=O)[C@H]2CCCN2C(=O)[C@H](CCCCN)NC(=O)[C@H](CCC(N)=O)NC(=O)[C@H](Cc2ccc(O)cc2)NC(=O)[C@@H]2CSSC[C@H](NC1=O)C(=O)N[C@@H](CCCNC(=N)N)C(=O)NCC(=O)N1CCC[C@@H]1C(=O)N[C@@H](CCCNC(=N)N)C(=O)N[C@@H](CCCNC(=N)N)C(=O)N[C@@H](Cc1ccc3ccccc3c1)C(=O)N2 [Ex. 95] (cyclo(YRACRG[dP]RR[2Nal]CYQK[dP]P); disulfide 4-11),Hemolysis at 100 μM,[1],0.1%
same,IC50,CXCR4,2.9 nM
same,GI50 at 48 h,in vitro,41 µM
